Experimental data published in ChEMBL document CHEMBL1154899, “Synthesis and biological evaluation of caffeic acid 3,4-dihydroxyphenethyl ester” (J Nat Prod, 2010).

Columns and labels:
Assay type in all cases: functional
[1] = Antiproliferative activity against human […] cells assessed as cell growth at 5 uM by SRB assay; details: read-out: Activity
SR = assay: Antiproliferative activity against human SR cells assessed as cell growth at 500 uM by SRB assay; details: read-out: Activity
SK-OV-3 [2] = assay: Antiproliferative activity against human SKOV3 cells assessed as cell growth at 500 uM by SRB assay; details: read-out: Activity
SN12C [3] = assay: Antiproliferative activity against human SN12C cells assessed as cell growth at 50 uM by SRB assay; details: read-out: Activity
MDA-MB-435 = assay: Antiproliferative activity against human MDA-MB-435 cells assessed as cell growth at 5 mM by SRB assay; details: read-out: Activity
A549 = assay: Antiproliferative activity against human A549 cells assessed as cell growth at 500 uM by SRB assay; details: read-out: Activity
OVCAR-3 [4] = assay: Antiproliferative activity against human OVCAR-3 cells by SRB assay
SW-620 = assay: Antiproliferative activity against human SW620 cells assessed as cell growth at 500 uM by SRB assay; details: read-out: Activity
SN12C [5] = assay: Antiproliferative activity against human SN12C cells assessed as cell growth at 5 uM by SRB assay; details: read-out: Activity
NCI-H460 = assay: Antiproliferative activity against human NCI-H460 cells assessed as cell growth at 5 mM by SRB assay; details: read-out: Activity
CAKI-1 = assay: Antiproliferative activity against human Caki1 cells assessed as cell growth at 500 uM by SRB assay; details: read-out: Activity
SK-MEL-2 = assay: Antiproliferative activity against human SK-MEL-2 cells assessed as cell growth at 0.5 uM by SRB assay; details: read-out: Activity
HOP-62 [6] = assay: Antiproliferative activity against human HOP62 cells assessed as cell growth at 50 uM by SRB assay; details: read-out: Activity
HL-60(TB) = assay: Antiproliferative activity against human HL-60(TB) cells assessed as cell growth at 5 mM by SRB assay; details: read-out: Activity
OVCAR-3 [7] = assay: Antiproliferative activity against human OVCAR-3 cells assessed as cell growth at 0.5 uM by SRB assay; details: read-out: Activity
SN12C [8] = assay: Antiproliferative activity against human SN12C cells by SRB assay
OVCAR-4 = assay: Antiproliferative activity against human OVCAR4 cells assessed as cell growth at 0.5 uM by SRB assay; details: read-out: Activity
HOP-62 [9] = assay: Antiproliferative activity against human HOP62 cells assessed as cell growth at […] by SRB assay; details: read-out: Activity
A498 [10] = assay: Antiproliferative activity against human A498 cells assessed as cell growth at 50 uM by SRB assay; details: read-out: Activity
ACHN = assay: Antiproliferative activity against human ACHN cells assessed as cell growth at 0.5 uM by SRB assay; details: read-out: Activity
DU-145 = assay: Antiproliferative activity against human DU145 cells assessed as cell growth at […] by SRB assay; details: read-out: Activity
SK-MEL-5 = assay: Antiproliferative activity against human SK-MEL-5 cells assessed as cell growth at 0.5 uM by SRB assay; details: read-out: Activity
[11] = Antiproliferative activity against human […] cells assessed as cell growth at 500 uM by SRB assay; details: read-out: Activity
MOLT-4 = assay: Antiproliferative activity against human MOLT4 cells assessed as cell growth at 500 uM by SRB assay; details: read-out: Activity
NCI-H226 [12] = assay: Antiproliferative activity against human NCI-H226 cells assessed as cell growth at 50 uM by SRB assay; details: read-out: Activity
[13] = Antiproliferative activity against human […] cells assessed as cell growth at 50 uM by SRB assay; details: read-out: Activity
HCT-15 = assay: Antiproliferative activity against human HCT15 cells assessed as cell growth at 50 uM by SRB assay; details: read-out: Activity
A498 [14] = assay: Antiproliferative activity against human A498 cells assessed as cell growth at 500 uM by SRB assay; details: read-out: Activity
KM12 = assay: Antiproliferative activity against human KM12 cells by SRB assay
NCI-H522 = assay: Antiproliferative activity against human NCI-H522 cells assessed as cell growth at 5 mM by SRB assay; details: read-out: Activity
OVCAR-5 [15] = assay: Antiproliferative activity against human OVCAR5 cells at 500 uM by SRB assay
U-251 = assay: Antiproliferative activity against human U251 cells assessed as cell growth at 50 uM by SRB assay; details: read-out: Activity
CCRF-CEM [16] = assay: Antiproliferative activity against human CCRF-CEM cells assessed as cell growth at […] by SRB assay; details: read-out: Activity
NCI-H322M = assay: Antiproliferative activity against human NCI-H322M cells by SRB assay
IGROV-1 = assay: Antiproliferative activity against human IGROV1 cells assessed as cell growth at 500 uM by SRB assay; details: read-out: Activity
CCRF-CEM [17] = assay: Antiproliferative activity against human CCRF-CEM cells assessed as cell growth at 5 uM by SRB assay; details: read-out: Activity
OVCAR-5 [18] = assay: Antiproliferative activity against human OVCAR5 cells at 0.5 uM by SRB assay
TK-10 [19] = assay: Antiproliferative activity against human TK10 cells assessed as cell growth at 0.5 uM by SRB assay; details: read-out: Activity
TK-10 [20] = assay: Antiproliferative activity against human TK10 cells assessed as cell growth at 500 uM by SRB assay; details: read-out: Activity
NCI-H226 [21] = assay: Antiproliferative activity against human NCI-H226 cells by SRB assay
SK-OV-3 [22] = assay: Antiproliferative activity against human SKOV3 cells assessed as cell growth at 50 uM by SRB assay; details: read-out: Activity
HT-29 = assay: Antiproliferative activity against human HT-29 cells assessed as cell growth at […] by SRB assay; details: read-out: Activity
BT-549 = assay: Antiproliferative activity against human BT549 cells assessed as cell growth at 500 uM by SRB assay; details: read-out: Activity
HCC 2998 = assay: Antiproliferative activity against human HCC2998 cells assessed as cell growth at 5 uM by SRB assay; details: read-out: Activity
OVCAR-5 [23] = assay: Antiproliferative activity against human OVCAR5 cells at 5 mM by SRB assay
[24] = read-out: LC50 (the source's name)
[25] = read-out: pLC50 (the source's name) (converted)

What does the source list for `O=C(/C=C/c1ccc(O)c(O)c1)OCCc1ccc(O)c(O)c1`?
growth at 5 µM [1]: 70%; growth at 500 µM (SR): 20%; growth at 500 µM (SK-OV-3 [2]): 79%; growth at 50 µM (SN12C [3]): 81%; growth at 5000 µM (MDA-MB-435): 17%; growth at 500 µM (A549): 96%; GI50 (OVCAR-3 [4]; read-out: GI50): 5.17 µM; CC50 (OVCAR-3 [4]; [24]): > 50 µM; TGI (OVCAR-3 [4]; read-out: TGI): > 50 µM; GI50 (OVCAR-3 [4]; read-out: pGI50 (converted)): 5.13 µM; CC50 (OVCAR-3 [4]; [25]): > 50.1 µM; TGI (OVCAR-3 [4]; read-out: pTGI): > 50.1 µM; growth at 500 µM (SW-620): 64%; growth at 5 µM (SN12C [5]): 80%; growth at 5000 µM (NCI-H460): 1%; growth at 500 µM (CAKI-1): 68%; growth at 0.5 µM (SK-MEL-2): 86%; growth at 50 µM (HOP-62 [6]): 97%; growth at 5000 µM (HL-60(TB)): -30%; growth at 0.5 µM (OVCAR-3 [7]): 104%; GI50 (SN12C [8]; read-out: GI50): 9.09 µM; CC50 (SN12C [8]; [24]): > 50 µM; TGI (SN12C [8]; read-out: TGI): > 50 µM; GI50 (SN12C [8]; read-out: pGI50 (converted)): 9.12 µM; CC50 (SN12C [8]; [25]): > 50.1 µM; TGI (SN12C [8]; read-out: pTGI): > 50.1 µM; growth at 0.5 µM (OVCAR-4): 99%; growth (HOP-62 [9]): 38%; growth at 50 µM (A498 [10]): 95%; growth at 0.5 µM (ACHN): 98%; growth (DU-145): -22%; growth at 0.5 µM (SK-MEL-5): 97%; growth at 500 µM [11]: 11%; growth at 500 µM (MOLT-4): 39%; growth at 50 µM (NCI-H226 [12]): 90%; growth at 50 µM [13]: 54%; growth at 50 µM (HCT-15): 78%; growth at 500 µM (A498 [14]): 68%; GI50 (KM12; read-out: GI50): 7.92 µM; CC50 (KM12; [24]): > 50 µM; TGI (KM12; read-out: TGI): > 50 µM; GI50 (KM12; read-out: pGI50 (converted)): 7.94 µM; CC50 (KM12; [25]): > 50.1 µM; TGI (KM12; read-out: pTGI): > 50.1 µM; growth at 5000 µM (NCI-H522): -30%; Activity (OVCAR-5 [15]): 102%; growth at 50 µM (U-251): 98%; growth (CCRF-CEM [16]): -44%; GI50 (NCI-H322M; read-out: GI50): 28.1 µM; CC50 (NCI-H322M; [24]): > 50 µM; TGI (NCI-H322M; read-out: TGI): > 50 µM; GI50 (NCI-H322M; read-out: pGI50 (converted)): 28.2 µM; CC50 (NCI-H322M; [25]): > 50.1 µM; TGI (NCI-H322M; read-out: pTGI): > 50.1 µM; growth at 500 µM (IGROV-1): 35%; growth at 5 µM (CCRF-CEM [17]): 99%; Activity (OVCAR-5 [18]): 94%; growth at 0.5 µM (TK-10 [19]): 92%; growth at 500 µM (TK-10 [20]): 81%; GI50 (NCI-H226 [21]; read-out: GI50): 13.3 µM; CC50 (NCI-H226 [21]; [24]): > 50 µM; TGI (NCI-H226 [21]; read-out: TGI): > 50 µM; GI50 (NCI-H226 [21]; read-out: pGI50 (converted)): 13.5 µM; CC50 (NCI-H226 [21]; [25]): > 50.1 µM; TGI (NCI-H226 [21]; read-out: pTGI): > 50.1 µM; growth at 50 µM (SK-OV-3 [22]): 88%; growth (HT-29): 34%; growth at 500 µM (BT-549): 60%; growth at 5 µM (HCC 2998): 107%; Activity (OVCAR-5 [23]): 51%
